Key:
769-P (Kidney Carcinoma) = test: Bliss excess, mean over the matrix (fraction); higher = more synergy
How it was run: (§1)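 Cell lines grown in DMEM/F12 or RPMI with 10% FBS were plated in 1536-well plates and held 24 hours at 37°C, 5% CO2 before 72 hours of exposure to two-drug dose matrices, with DMSO typically at 0.2%. CellTiter-Glo 2.0 luminescence gave viability, which was converted to inhibition. Vehicle wells were set to 0 and blank wells to 1. Combination Emax is the second-highest inhibition in the matrix, and Bliss excess is the observed combination effect minus the expected EA + EB − EA·EB, where EA and EB are the single-agent effects.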

[1] = system: NCI-H716 (Colorectal Carcinoma); test: as above
How it was run: as §1

IM-9 (Non-Cancerous) = test: as above
How it was run: as §1

EW-16 (Ewing's Sarcoma) = test: as above
How it was run: as §1

[2] = system: JHH-2 (Hepatocellular Carcinoma); test: as above
How it was run: as §1

[3] = system: HCC1428 (Breast Carcinoma); test: as above
How it was run: as §1

[4] = system: DU-4475 (Breast Carcinoma); test: as above
How it was run: as §1

EW-7 (Ewing's Sarcoma) = test: as above
How it was run: as §1

[5] = system: CAL-27 (Oral Cavity Carcinoma); test: as above
How it was run: as §1

[6] = system: EPLC-272H (Other Solid Carcinomas); test: as above
How it was run: as §1

HCC70 (Breast Carcinoma) = test: as above
How it was run: as §1

[7] = system: KYSE-220 (Esophageal Squamous Cell Carcinoma); test: as above
How it was run: as §1

[8] = system: NCI-H1651 (Lung Adenocarcinoma); test: as above
How it was run: as §1

[9] = system: JIMT-1 (Breast Carcinoma); test: as above
How it was run: as §1

EB2 (Burkitt's Lymphoma) = test: as above
How it was run: as §1

[10] = system: HCC1395 (Breast Carcinoma); test: combination Emax (second highest fraction inhibited in the dose matrix, 72 h); higher = more inhibition; extreme values may be limits of the assay
How it was run: as §1

WM1552C (Melanoma) = test: as above
How it was run: as §1

[11] = system: LS-411N (Colorectal Carcinoma); test: as above
How it was run: as §1

[12] = system: HT55 (Colorectal Carcinoma); test: as above
How it was run: as §1

[13] = system: ESO26 (Esophageal Adenocarcinoma); test: as above
How it was run: as §1
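Throughout, for Bliss excess, mean over the matrix: after 72 h of two-drug dosing.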

Row | Structure (SMILES) | Bliss excess (769-P (Kidney Carcinoma)) | Bliss excess [1] | Bliss excess (IM-9 (Non-Cancerous)) | Bliss excess (EW-16 (Ewing's Sarcoma)) | Bliss excess [2] | Bliss excess [3] | Bliss excess [4] | Bliss excess (EW-7 (Ewing's Sarcoma)) | Bliss excess [5] | Bliss excess [6] | Bliss excess (HCC70 (Breast Carcinoma)) | Bliss excess [7] | Bliss excess [8] | Bliss excess [9] | Bliss excess (EB2 (Burkitt's Lymphoma)) | combination Emax [10] | combination Emax (WM1552C (Melanoma)) | combination Emax [11] | combination Emax [12] | combination Emax [13]
1 | COc1nnc2ccc(N3CCC(c4ccc(OCCN5CCN(C)C(=O)[C@H]5C)cc4)CC3)nn12 [AZD5153] + CC1(C)CCC(CN2CCN(c3ccc(C(=O)NS(=O)(=O)c4ccc(NCC5CCOCC5)c([N+](=O)[O-])c4)c(Oc4cnc5[nH]ccc5c4)c3)CC2)=C(c2ccc(Cl)cc2)C1 [Venetoclax] (first compound max 1 µM, 7x7, partner max 1 µM) | -0.0457 | -0.0035 | 0.0394 | -0.0593 | -0.0068 | -0.0592 | 0.0181 | -0.0122 | -0.0394 | -0.0378 | -0.0013 | -0.015 | -0.0338 | -0.0629 | -0.0677 | 0.411 | 0.397 | 0.728 | 0.513 | 0.648
2 | COc1nnc2ccc(N3CCC(c4ccc(OCCN5CCN(C)C(=O)[C@H]5C)cc4)CC3)nn12 [AZD5153] + CCN(CCO)CCCOc1ccc2c(Nc3cc(CC(=O)Nc4cccc(F)c4)[nH]n3)ncnc2c1 [AZD2811] (first compound max 1 µM, 7x7, partner max 1 µM) | -0.0217 | -0.0316 | -0.111 | 0.0068 | -0.0496 | -0.0173 | 0.0934 | 0.0274 | -0.127 | -0.0387 | -0.0734 | 0.0083 | 0.004 | -0.0113 | -0.102 | 0.398 | 0.444 | 0.739 | 0.619 | 0.752
3 | COc1nnc2ccc(N3CCC(c4ccc(OCCN5CCN(C)C(=O)[C@H]5C)cc4)CC3)nn12 [AZD5153] + C[C@@H]1COCCN1C2=NC(=NC(=C2)C3(CC3)[S@](=N)(=O)C)C4=C5C=CNC5=NC=C4 [AZD6738] (first compound max 1 µM, 7x7, partner max 10 µM) | 0.0196 | -0.0312 | -0.0697 | 0.0667 | -0.0066 | 0.0209 | 0.0294 | 0.034 | 0.0095 | -0.0629 | 0.015 | 0.0019 | 0.0178 | 0.0465 | -0.0996 | 0.671 | 0.546 | 0.947 | 0.748 | 0.84
4 | COc1nnc2ccc(N3CCC(c4ccc(OCCN5CCN(C)C(=O)[C@H]5C)cc4)CC3)nn12 [AZD5153] + Cc1c2c(nn1C)CSCc1cc(n(C)n1)CSc1cc(c3ccccc3c1)OCCCc1c(C(=O)O)n(C)c3c-2c(Cl)ccc13 [AZD5991] (first compound max 1 µM, 7x7, partner max 1 µM) | -0.0716 | 0.0076 | -0.127 | -0.0412 | -0.119 | -0.0587 | 0.0617 | 0.07 | -0.056 | -0.026 | 0.0638 | -0.0229 | -0.0273 | 0.0155 | -0.0614 | 0.817 | 0.888 | 0.917 | 0.61 | 0.778
5 | COc1nnc2ccc(N3CCC(c4ccc(OCCN5CCN(C)C(=O)[C@H]5C)cc4)CC3)nn12 [AZD5153] + Cn1cnc2c(F)c(Nc3ccc(Br)cc3Cl)c(C(=O)NOCCO)cc21 [Selumetinib] (first compound max 1 µM, 7x7, partner max 10 µM) | -0.0261 | 0.016 | 0.0322 | -0.0456 | 0.0024 | 0.0137 | 0.0219 | -0.032 | -0.0093 | 0.0173 | 0.0982 | 0.123 | -0.0319 | -0.0082 | -0.0216 | 0.305 | 0.514 | 0.997 | 0.857 | 0.709
6 | Cc1c2c(nn1C)CSCc1cc(n(C)n1)CSc1cc(c3ccccc3c1)OCCCc1c(C(=O)O)n(C)c3c-2c(Cl)ccc13 [AZD5991] + C1CN(CCC1(C(=O)N[C@@H](CCO)C2=CC=C(C=C2)Cl)N)C3=NC=NC4=C3C=CN4 [Capivasertib] (first compound max 1 µM, 7x7, partner max 3 µM) | -0.0369 | 0.0001 | -0.0616 | -0.0456 | 0.0621 | 0.0136 | -0.0023 | 0.0459 | 0.0073 | 0.0341 | 0.0761 | 0.0187 | 0.0279 | -0.0056 | -0.0375 | 0.911 | 0.929 | 0.362 | 0.269 | 0.405
7 | Cc1c2c(nn1C)CSCc1cc(n(C)n1)CSc1cc(c3ccccc3c1)OCCCc1c(C(=O)O)n(C)c3c-2c(Cl)ccc13 [AZD5991] + CC1(C)CCC(CN2CCN(c3ccc(C(=O)NS(=O)(=O)c4ccc(NCC5CCOCC5)c([N+](=O)[O-])c4)c(Oc4cnc5[nH]ccc5c4)c3)CC2)=C(c2ccc(Cl)cc2)C1 [Venetoclax] (first compound max 1 µM, 7x7, partner max 1 µM) | -0.0328 | -0.0436 | 0.218 | -0.0326 | -0.0156 | 0.0221 | 0.0375 | 0.0249 | -0.0081 | -0.015 | 0.0042 | 0.0093 | -0.0327 | -0.0155 | 0.0144 | 0.736 | 0.735 | 0.157 | 0.13 | 0.151
8 | Cc1c2c(nn1C)CSCc1cc(n(C)n1)CSc1cc(c3ccccc3c1)OCCCc1c(C(=O)O)n(C)c3c-2c(Cl)ccc13 [AZD5991] + CCN(CCO)CCCOc1ccc2c(Nc3cc(CC(=O)Nc4cccc(F)c4)[nH]n3)ncnc2c1 [AZD2811] (first compound max 1 µM, 7x7, partner max 1 µM) | -0.0395 | -0.0013 | -0.0112 | 0.117 | -0.0213 | 0.0469 | 0.075 | 0.198 | 0.0403 | 0.0705 | -0.0219 | 0.0088 | -0.0386 | 0.0203 | 0.0391 | 0.713 | 0.824 | 0.178 | 0.553 | 0.319
9 | Cc1c2c(nn1C)CSCc1cc(n(C)n1)CSc1cc(c3ccccc3c1)OCCCc1c(C(=O)O)n(C)c3c-2c(Cl)ccc13 [AZD5991] + CN(C)CCCOc1ccc(-c2ccc3ncc4c(c3c2)n(C2CCOCC2)c(=O)n4C)cn1 [AZD0156] (first compound max 1 µM, 7x7, partner max 1 µM) | -0.0089 | 0.0233 | -0.0637 | -0.0014 | 0.0012 | -0.0089 | -0.0262 | 0.0313 | -0.0227 | 0.0047 | -0.0028 | -0.0053 | 0.0042 | -0.0129 | -0.0423 | 0.537 | 0.76 | 0.136 | 0.276 | 0.269
10 | Cc1c2c(nn1C)CSCc1cc(n(C)n1)CSc1cc(c3ccccc3c1)OCCCc1c(C(=O)O)n(C)c3c-2c(Cl)ccc13 [AZD5991] + C[C@@H]1COCCN1C2=NC(=NC(=C2)C3(CC3)[S@](=N)(=O)C)C4=C5C=CNC5=NC=C4 [AZD6738] (first compound max 1 µM, 7x7, partner max 10 µM) | -0.0333 | 0.0138 | -0.0532 | -0.0304 | 0.0115 | -0.0045 | 0.0233 | 0.0266 | 0.0358 | 0.0151 | -0.0069 | -0.0328 | 0.0192 | 0.0789 | -0.0097 | 0.918 | 0.836 | 0.772 | 0.503 | 0.544
11 | Cc1c2c(nn1C)CSCc1cc(n(C)n1)CSc1cc(c3ccccc3c1)OCCCc1c(C(=O)O)n(C)c3c-2c(Cl)ccc13 [AZD5991] + C[C@@H](Nc1cc(F)cc(F)c1)c1cc(C(=O)N(C)C)cc2c(=O)cc(N3CCOCC3)oc12 [AZD8186] (first compound max 1 µM, 7x7, partner max 3 µM) | -0.0256 | -0.0335 | -0.0376 | -0.0571 | -0.0261 | -0.009 | -0.0249 | -0.0178 | 0.0034 | 0.0238 | 0.0937 | -0.006 | -0.0293 | -0.0492 | 0.0282 | 0.736 | 0.77 | 0.178 | 0.272 | 0.284
12 | Cc1c2c(nn1C)CSCc1cc(n(C)n1)CSc1cc(c3ccccc3c1)OCCCc1c(C(=O)O)n(C)c3c-2c(Cl)ccc13 [AZD5991] + Cc1cc2ncnn2cc1Nc1ncc2c(n1)n(C1CCOCC1)c(=O)n2C [AZD7648] (first compound max 1 µM, 7x7, partner max 10 µM) | -0.0328 | -0.0646 | 0.014 | -0.0174 | -0.0272 | 0.0018 | 0.0811 | -0.0105 | -0.057 | -0.0575 | -0.052 | 0.0083 | 0.0096 | -0.0541 | 0.0285 | 0.545 | 0.71 | 0.116 | 0.242 | 0.198

Source: the supplement of paper PMC11061612
